ChEMBL document CHEMBL1201862, “PubChem BioAssay data set” (2004)
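Assay format: 96-well plates, 48-hour exposure. Abbreviation: GI50, concentration required for 50% inhibition of growth.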 Activity calls are given as the source filed them. Rule as the data show it: active = GI50 up to about 1.1 µM and inactive = higher.

Tests used:
Assay in all cases: DTP human tumour cell line panel, 48 h
MDA-MB-435 = test system: MDA-MB-435
ACHN = test system: ACHN
NCI-H522 = test system: NCI-H522
SNB-19 = test system: SNB-19
RXF 393 = test system: RXF 393
NCI-H226 = test system: NCI-H226
MCF7 = test system: MCF7
SN12C = test system: SN12C
A549 = test system: A549
LOX IMVI = test system: LOX IMVI
SK-MEL-28 = test system: SK-MEL-28
T47D = test system: T47D
HCT-116 = test system: HCT-116
COLO 205 = test system: COLO 205
HOP-62 = test system: HOP-62
A498 = test system: A498
CAKI-1 = test system: CAKI-1
BT-549 = test system: BT-549
OVCAR-5 = test system: OVCAR-5
HL-60 = test system: HL-60
SK-MEL-2 = test system: SK-MEL-2
SR = test system: SR
HOP-92 = test system: HOP-92
OVCAR-4 = test system: OVCAR-4
M14 = test system: M14
HT-29 = test system: HT-29
HCT-15 = test system: HCT-15
Malme-3M = test system: Malme-3M
Hs-578T = test system: Hs-578T
MOLT-4 = test system: MOLT-4
RPMI-8226 = test system: RPMI-8226
UO-31 = test system: UO-31
TK-10 = test system: TK-10
UACC-257 = test system: UACC-257
PC-3 = test system: PC-3
EKVX = test system: EKVX
CCRF-CEM = test system: CCRF-CEM
SW-620 = test system: SW-620
SF-295 = test system: SF-295
SK-MEL-5 = test system: SK-MEL-5
NCI-H460 = test system: NCI-H460
OVCAR-8 = test system: OVCAR-8
NCI-H23 = test system: NCI-H23
DU-145 = test system: DU-145
OVCAR-3 = test system: OVCAR-3
SF-268 = test system: SF-268
SF-539 = test system: SF-539
SK-OV-3 = test system: SK-OV-3
KM12 = test system: KM12
MDA-N = test system: MDA-N
HCC 2998 = test system: HCC 2998
K562 = test system: K562
UACC-62 = test system: UACC-62
786-0 = test system: 786-0
SNB-75 = test system: SNB-75
MDA-MB-231 = test system: MDA-MB-231
U-251 = test system: U-251
IGROV-1 = test system: IGROV-1
NCI/ADR-RES = test system: NCI/ADR-RES

CCN(C(=O)N[C@@H](C)C(=O)N[C@@H](Cc1ccccc1)C(=O)OC)c1ccccc1
GI50 (MDA-MB-435): > 100 µM (inactive) | GI50 (ACHN): > 100 µM (inactive) | GI50 (NCI-H522): 71.6 µM (inactive) | GI50 (SNB-19): > 100 µM (inactive) | GI50 (RXF 393): > 100 µM (inactive) | GI50 (NCI-H226): > 100 µM (inactive) | GI50 (MCF7): > 100 µM (inactive) | GI50 (SN12C): 23 µM (inactive) | GI50 (A549): > 100 µM (inactive) | GI50 (LOX IMVI): 31.2 µM (inactive) | GI50 (SK-MEL-28): 33.2 µM (inactive) | GI50 (T47D): 56.8 µM (inactive) | GI50 (HCT-116): > 100 µM (inactive) | GI50 (COLO 205): 31.5 µM (inactive) | GI50 (HOP-62): > 100 µM (inactive) | GI50 (A498): > 100 µM (inactive) | GI50 (CAKI-1): > 100 µM (inactive) | GI50 (BT-549): > 100 µM (inactive) | GI50 (OVCAR-5): > 100 µM (inactive) | GI50 (HL-60): 28.4 µM (inactive) | GI50 (SK-MEL-2): 28.6 µM (inactive) | GI50 (SR): 26 µM (inactive) | GI50 (HOP-92): 19.4 µM (inactive) | GI50 (OVCAR-4): 68.4 µM (inactive) | GI50 (M14): 34.4 µM (inactive) | GI50 (HT-29): > 100 µM (inactive) | GI50 (HCT-15): 70.8 µM | GI50 (Malme-3M): 34.4 µM (inactive) | GI50 (Hs-578T): 70.6 µM (inactive) | GI50 (MOLT-4): > 100 µM (inactive) | GI50 (RPMI-8226): 38.5 µM (inactive) | GI50 (UO-31): 31.7 µM (inactive) | GI50 (TK-10): > 100 µM (inactive) | GI50 (UACC-257): 49.1 µM (inactive) | GI50 (PC-3): > 100 µM (inactive) | GI50 (EKVX): > 100 µM (inactive) | GI50 (CCRF-CEM): > 100 µM (inactive) | GI50 (SW-620): > 100 µM (inactive) | GI50 (SF-295): 79.6 µM (inactive) | GI50 (SK-MEL-5): 95.9 µM (inactive) | GI50 (NCI-H460): 17.5 µM (inactive) | GI50 (OVCAR-8): 51.3 µM (inactive) | GI50 (NCI-H23): > 100 µM (inactive) | GI50 (DU-145): 46 µM (inactive) | GI50 (OVCAR-3): 54.2 µM (inactive) | GI50 (SF-268): > 100 µM (inactive) | GI50 (SF-539): 34.5 µM (inactive) | GI50 (SK-OV-3): > 100 µM (inactive) | GI50 (KM12): > 100 µM (inactive) | GI50 (MDA-N): > 100 µM (inactive) | GI50 (HCC 2998): 81.5 µM (inactive) | GI50 (K562): 32 µM (inactive) | GI50 (UACC-62): 31.6 µM (inactive) | GI50 (786-0): 39 µM (inactive) | GI50 (SNB-75): 54 µM (inactive) | GI50 (MDA-MB-231): > 100 µM (inactive) | GI50 (U-251): > 100 µM (inactive) | GI50 (IGROV-1): 44.7 µM (inactive) | GI50 (NCI/ADR-RES): > 100 µM (inactive)

CN(C)CCNc1ccc2c(=O)n(CCN(C)C)c(=O)n3c4ccccc4c(=O)c1c23
GI50 (MDA-MB-435): 0.145 µM (active) | GI50 (ACHN): 0.0161 µM (active) | GI50 (NCI-H522): 0.0689 µM (active) | GI50 (SNB-19): 0.137 µM (active) | GI50 (RXF 393): 0.109 µM (active) | GI50 (NCI-H226): 0.0603 µM (active) | GI50 (MCF7): < 0.0174 µM (active) | GI50 (SN12C): 0.0198 µM (active) | GI50 (A549): < 0.0216 µM (active) | GI50 (LOX IMVI): 0.0624 µM (active) | GI50 (SK-MEL-28): 0.116 µM (active) | GI50 (T47D): 0.133 µM (active) | GI50 (HCT-116): 0.0269 µM (active) | GI50 (COLO 205): 0.17 µM (active) | GI50 (HOP-62): 0.0185 µM (active) | GI50 (A498): 0.157 µM (active) | GI50 (CAKI-1): 0.0133 µM (active) | GI50 (BT-549): 0.238 µM (active) | GI50 (OVCAR-5): 0.318 µM (active) | GI50 (HL-60): < 0.01 µM (active) | GI50 (SK-MEL-2): 0.399 µM (active) | GI50 (SR): < 0.01 µM (active) | GI50 (HOP-92): 0.0516 µM (active) | GI50 (OVCAR-4): 0.27 µM (active) | GI50 (M14): 0.0836 µM (active) | GI50 (HT-29): 0.0502 µM (active) | GI50 (HCT-15): 0.0815 µM | GI50 (Malme-3M): 0.18 µM (active) | GI50 (Hs-578T): 0.305 µM (active) | GI50 (MOLT-4): < 0.01 µM (active) | GI50 (RPMI-8226): 0.0182 µM (active) | GI50 (UO-31): 0.166 µM (active) | GI50 (TK-10): 0.392 µM (active) | GI50 (UACC-257): 0.34 µM (active) | GI50 (PC-3): 0.114 µM (active) | GI50 (EKVX): 0.174 µM (active) | GI50 (CCRF-CEM): < 0.01 µM (active) | GI50 (SW-620): < 0.0208 µM (active) | GI50 (SF-295): < 0.0243 µM (active) | GI50 (SK-MEL-5): 0.0427 µM (active) | GI50 (NCI-H460): < 0.0113 µM (active) | GI50 (OVCAR-8): 0.0711 µM (active) | GI50 (NCI-H23): 0.0505 µM (active) | GI50 (DU-145): 0.0197 µM (active) | GI50 (OVCAR-3): 0.218 µM (active) | GI50 (SF-268): 0.0512 µM (active) | GI50 (SF-539): 0.0321 µM (active) | GI50 (SK-OV-3): < 0.0392 µM (active) | GI50 (KM12): 0.116 µM (active) | GI50 (MDA-N): 0.133 µM (active) | GI50 (HCC 2998): < 0.0164 µM (active) | GI50 (K562): 0.0133 µM (active) | GI50 (UACC-62): 0.0614 µM (active) | GI50 (786-0): < 0.0198 µM (active) | GI50 (SNB-75): 0.0513 µM (active) | GI50 (MDA-MB-231): 0.114 µM (active) | GI50 (U-251): 0.0402 µM (active) | GI50 (IGROV-1): 0.0404 µM (active) | GI50 (NCI/ADR-RES): 0.14 µM (active)
